# How the values were obtained:
# [1] = molecular target: T1, Protein disulfide isomerase (PDI) (Homo sapiens, UniProt P07237, I289A); assay: ANS fluorescence binding (λex […] nm), displaced by bepristats, absent with I272A
# T1 construct: gene P4HB; isolated b′x domain; full-length PDI
# T1 sequence (P07237 236-367 I289A limits assumed): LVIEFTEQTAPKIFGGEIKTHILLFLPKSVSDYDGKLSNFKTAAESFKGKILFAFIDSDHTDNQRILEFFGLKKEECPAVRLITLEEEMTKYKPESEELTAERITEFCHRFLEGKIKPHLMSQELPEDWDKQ
# [2] = molecular target: T2, Protein disulfide isomerase (PDI) (Homo sapiens, UniProt P07237); assay: insulin turbidimetric and di-eosin-GSSG reductase assays; format: biochemical; set-up: gene P4HB; full-length PDI
# T2 sequence (P07237 18-508): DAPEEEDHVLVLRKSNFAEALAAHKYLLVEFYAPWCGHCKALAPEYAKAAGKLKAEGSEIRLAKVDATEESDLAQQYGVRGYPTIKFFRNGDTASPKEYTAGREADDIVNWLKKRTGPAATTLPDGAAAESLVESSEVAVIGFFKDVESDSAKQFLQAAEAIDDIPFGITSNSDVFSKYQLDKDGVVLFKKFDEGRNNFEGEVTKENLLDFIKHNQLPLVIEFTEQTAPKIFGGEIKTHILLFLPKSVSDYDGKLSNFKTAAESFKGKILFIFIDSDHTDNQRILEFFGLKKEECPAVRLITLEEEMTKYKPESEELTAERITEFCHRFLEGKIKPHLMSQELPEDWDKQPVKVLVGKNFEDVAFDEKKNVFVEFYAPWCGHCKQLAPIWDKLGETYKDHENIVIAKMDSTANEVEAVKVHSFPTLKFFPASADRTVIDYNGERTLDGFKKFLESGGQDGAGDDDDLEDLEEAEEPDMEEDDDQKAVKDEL
# [3] = molecular target: T2, Protein disulfide isomerase (PDI); assay: insulin turbidimetric reductase assay; ANS displacement from PDI and b′x, intrinsic Trp fluorescence, domain mapping; format: biochemical; set-up: gene P4HB; full-length PDI; also abb′ (residues 1–331), b′xa′ (residues 219–462) and b′x
IC50 [3] [nM],Molecule,also measured
,"O=S(=O)(O)c1cccc2cccc(Nc3ccccc3)c12 [ANS, 1-anilinonaphthalene-8-sulfonic acid]","ANS fluorescence binding (λex 370 nm), displaced by bepristats, absent with I272 [1]: ANS fluorescence was prominent on incubation with the isolated b′x domain and weak on incubation with isolated a, a′"
,"C[C@@H]1O[C@@H](OC[C@H]2O[C@@H](Oc3c(-c4ccc(O)c(O)c4)oc4cc(O)cc(O)c4c3=O)[C@H](O)[C@@H](O)[C@@H]2O)[C@H](O)[C@H](O)[C@H]1O [Q-3-R, quercetin-3-rutinoside]",insulin turbidimetric and di-eosin-GSSG reductase assays [2]: these other inhibitors all blocked PDI-mediated cleavage of di-eosin-GSSG when used at concentrations required to inhibit activity
~700,CCN(C)C(=O)C1(CCOc2ccccc2)CCN(Cc2ccc(O)c(Cl)c2)CC1 [bepristat 1a],
~1200,bepristat 2a,
